Reference: US8658646B2, “Pyrrolopyrazine kinase inhibitors” (Hoffmann-LaRoche Inc., priority 2011, dated 2014)

Assays:
[1] = target: T1, recombinant human SYK360-635 (Homo sapiens, UniProt P43405); test: Determination of IC50 of Spleen Tyrosine Kinase (SYK) inhibition, 33P ATP filtration assay; format: biochemical; conditions: SYK aa 360-635 0.5 nM; ATP 20 μM, peptide 5 μM, 0.1% BSA; read-out: SYK_ENZYME_FILTRATION/v1, BSA
T1 construct: made in house

[2] = target: T2, JAK3: Recombinant human kinase domain (Homo sapiens, UniProt P52333); test: Determination of IC50 of Janus Kinase (JAK) inhibition, radioactive end-point 33P-ATP assay, JAK3; format: biochemical; conditions: ATP 1.5 uM, peptide 50 uM, 20 minutes, read-out: JAK3-INHIB-DR/v1~NO ADDITIVE~Enzyme_Conc = 100
T2 construct: JAK3: Recombinant human kinase domain from Millipore (Cat #14-629) or prepared; purchased Millipore 14-629
T2 sequence (P52333 822-1111 limits assumed): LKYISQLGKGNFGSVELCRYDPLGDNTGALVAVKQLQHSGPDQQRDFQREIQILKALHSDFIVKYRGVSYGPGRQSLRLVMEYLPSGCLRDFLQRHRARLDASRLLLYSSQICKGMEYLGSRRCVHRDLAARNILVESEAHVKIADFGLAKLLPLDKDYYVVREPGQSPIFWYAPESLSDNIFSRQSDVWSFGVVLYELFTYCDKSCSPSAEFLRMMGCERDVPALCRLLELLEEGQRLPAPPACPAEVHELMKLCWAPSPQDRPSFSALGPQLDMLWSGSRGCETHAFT

Row | IC50 [1] | IC50 [2] | SMILES
1 | 23.1 nM | 3.47 nM | Cn1nc(-c2cnc3[nH]cc(C(=O)N[C@@H]4CC[C@H](O)C4)c3n2)c2ccc(Cl)cc21 [Example I-151, 2-(6-Chloro-1-methyl-1H-indazol-3-yl)-5H-pyrrolo[2,3-b]pyrazine-7-carboxylic acid ((1R,3S)-3-hydroxy-cyclopentyl)-amide]
2 | 56.4 nM | 16.9 nM | CC(NC(=O)c1c[nH]c2ncc(-c3nn(C)c4cc(F)ccc34)nc12)c1ccno1 (centres unmarked) [Example I-55, 2-(6-Fluoro-1-methyl-1H-indazol-3-yl)-5H-pyrrolo[2,3-b]pyrazine-7-carboxylic acid (1-isoxazol-5-yl-ethyl)-amide]
3 | 161 nM | 80 nM | CC(CC(C)(C)O)NC(=O)c1c[nH]c2ncc(-c3nn(C)c4cc(F)ccc34)nc12 (centres unmarked) [Example I-183, 2-(6-Fluoro-1-methyl-1H-indazol-3-yl)-5H-pyrrolo[2,3-b]pyrazine-7-carboxylic acid (3-hydroxy-1,3-dimethyl-butyl)-amide]
4 | 73.6 nM | 8.25 nM | Cc1cc(Cn2nc(-c3cnc4[nH]cc(C(=O)NC(C)C)c4n3)c3ccc(Cl)cc32)no1 [Example I-312, 2-[6-Chloro-1-(5-methyl-isoxazol-3-ylmethyl)-1H-indazol-3-yl]-5H-pyrrolo[2,3-b]pyrazine-7-carboxylic acid isopropylamide]
5 | 37.2 nM | 4.96 nM | CCCC(C)NC(=O)c1c[nH]c2ncc(-c3nn(C)c4cc(F)ccc34)nc12 (centres unmarked) [Example I-184, 2-(6-Fluoro-1-methyl-1H-indazol-3-yl)-5H-pyrrolo[2,3-b]pyrazine-7-carboxylic acid (1-methyl-butyl)-amide]
6 | 8.5 nM | 4.59 nM | Cn1nc(-c2cnc3[nH]cc(C(=O)N[C@@H]4CCCOC4)c3n2)c2ccc(Cl)cc21 [Example I-139, 2-(6-Chloro-1-methyl-1H-indazol-3-yl)-5H-pyrrolo[2,3-b]pyrazine-7-carboxylic acid (R)-tetrahydro-pyran-3-ylamide]
7 | 9.7 nM | 2.02 nM | Cn1nc(-c2cnc3[nH]cc(C(=O)N[C@H]4CC[C@@H](O)CC4)c3n2)c2ccc(Cl)cc21 [Example I-158, 2-(6-Chloro-1-methyl-1H-indazol-3-yl)-5H-pyrrolo[2,3-b]pyrazine-7-carboxylic acid (cis-4-hydroxy-cyclohexyl)-amide]
8 | 357 nM | 346 nM | COC[C@H](C)NC(=O)c1c[nH]c2ncc(-n3cnc4ccc(Cl)cc43)nc12 [Example I-224, 2-(6-Chloro-bcnzoimidazol-1-yl)-5H-pyrrolo[2,3-b]pyrazine-7-carboxylic acid ((S)-2-methoxy-1-methyl-ethyl)-amide]
9 | 44.4 nM | 10.6 nM | Cn1nc(-c2cnc3[nH]cc(C(=O)N[C@H]4CC[C@@H](CC#N)C4)c3n2)c2ccc(F)cc21 (relative stereo) [Example I-57, 2-(6-Fluoro-1-methyl-1H-indazol-3-yl)-5H-pyrrolo[2,3-b]pyrazine-7-carboxylic acid (cis-3-cyanomethyl-cyclopentyl)-amide]
10 | 284 nM | 82.4 nM | C[C@H](CN1CC[C@H](F)C1)NC(=O)c1c[nH]c2ncc(-c3nn(C)c4cc(Cl)ccc34)nc12 [Example I-122, 2-(6-Chloro-1-methyl-1H-indazol-3-yl)-5H-pyrrolo[2,3-b]pyrazine-7-carboxylic acid [(R)-2-((S)-3-fluoro-pyrrolidin-1-yl)-1-methyl-ethyl]-amide]
11 | 1540 nM | 22.5 nM | CC(Cc1ccccc1)NC(=O)c1c[nH]c2ncc(-c3nn(C)c4cc(Cl)ccc34)nc12 (centres unmarked) [Example I-150, 2-(6-Chloro-1-methyl-1H-indazol-3-yl)-5H-pyrrolo[2,3-b]pyrazine-7-carboxylic acid (1-methyl-2-phenyl-ethyl)-amide]
12 | 23.4 nM | 4.72 nM | CC(C)NC(=O)c1c[nH]c2ncc(-c3nn(CCCN4CCOCC4)c4cc(Cl)cc(F)c34)nc12 [Example I-132, 2-[6-Chloro-4-fluoro-1-(3-morpholin-4-yl-propyl)-1H-indazol-3-yl]-5H-pyrrolo[2,3-b]pyrazine-7-carboxylic acid isopropylamide]
13 | 22.1 nM | 4.91 nM | CC(NC(=O)c1c[nH]c2ncc(-c3nn(C)c4cc(Cl)ccc34)nc12)c1ncco1 (centres unmarked) [Example I-48, 2-(6-Chloro-1-methyl-1H-indazol-3-yl)-5H-pyrrolo[2,3-b]pyrazine-7-carboxylic acid (1-oxazol-2-yl-ethyl)-amide]
14 | 64.4 nM | 178 nM | CC(NC(=O)c1c[nH]c2ncc(-c3nn(C)c4cc(Cl)ccc34)nc12)c1nccn1C (centres unmarked) [Example I-199, 2-(6-Chloro-1-methyl-1H-indazol-3-yl)-5H-pyrrolo[2,3-b]pyrazine-7-carboxylic acid [1-(1-methyl-1H-imidazol-2-yl)-ethyl]-amide]
15 | 3.38 nM | 22.9 nM | CCC(C)(C)NC(=O)c1c[nH]c2ncc(-c3nn(C)c4cc(F)ccc34)nc12 [Example I-375, 2-(6-Fluoro-1-methyl-1H-indazol-3-yl)-5H-pyrrolo[2,3-b]pyrazine-7-carboxylic acid (1,1-dimethyl-propyl)-amide]
16 | 19.3 nM | 8.23 nM | Cn1nc(-c2cnc3[nH]cc(C(=O)NCC(C)(C)C)c3n2)c2ccc(F)cc21 [Example I-115, 2-(6-Fluoro-1-methyl-1H-indazol-3-yl)-5H-pyrrolo[2,3-b]pyrazine-7-carboxylic acid (2,2-dimethyl-propyl)-amide]
17 | 127 nM | 141 nM | Cn1nc(-c2cnc3[nH]cc(C(=O)NC(CO)C4CCCO4)c3n2)c2ccc(F)cc21 (centres unmarked) [Example I-190, 2-(6-Fluoro-1-methyl-1H-indazol-3-yl)-5H-pyrrolo[2,3-b]pyrazine-7-carboxylic acid [2-hydroxy-1-(tetrahydro-furan-2-yl)-ethyl]-amide]
18 | 1.9 nM | 17.4 nM | Cn1nc(-c2cnc3[nH]cc(C(=O)N[C@H]4CC[C@@H](N)CC4)c3n2)c2ccc(Cl)cc21 [Example I-145, 2-(6-Chloro-1-methyl-1H-indazol-3-yl)-5H-pyrrolo[2,3-b]pyrazine-7-carboxylic acid (cis-4-amino-cyclohexyl)-amide]
19 | 8.65 nM | 18.3 nM | Cn1nc(-c2cnc3[nH]cc(C(=O)N[C@H]4CC[C@H](N)CC4)c3n2)c2ccc(Cl)cc21 [Example I-146, 2-(6-Chloro-1-methyl-1H-indazol-3-yl)-5H-pyrrolo[2,3-b]pyrazine-7-carboxylic acid (trans-4-amino-cyclohexyl)-amide]
20 | 3710 nM | 118 nM | Cn1nc(-c2cnc3[nH]cc(C(=O)N[C@@H]4CCCN(CC(F)(F)F)C4)c3n2)c2ccc(Cl)cc21 [Example I-168, 2-(6-Chloro-1-methyl-1H-indazol-3-yl)-5H-pyrrolo[2,3-b]pyrazine-7-carboxylic acid [(R)-1-(2,2,2-trifluoro-ethyl)-piperidin-3-yl]-amide]
21 | 704 nM | 80.9 nM | COC[C@@H](NC(=O)c1c[nH]c2ncc(-c3nn(C)c4cc(F)ccc34)nc12)[C@@H](C)O [Example I-177, 2-(6-Fluoro-1-methyl-1H-indazol-3-yl)-5H-pyrrolo[2,3-b]pyrazine-7-carboxylic acid ((1R,2R)-2-hydroxy-1-methoxymethyl-propyl)-amide]
22 | 95.1 nM | 2.88 nM | COC[C@H](C)NC(=O)c1c[nH]c2ncc(-c3nn(CCN(C)C)c4cc(Cl)ccc34)nc12 [Example I-234, 2-[6-Chloro-1-(2-dimethylamino-ethyl)-1H-indazol-3-yl]-5H-pyrrolo[2,3-b]pyrazine-7-carboxylic acid ((S)-2-methoxy-1-methyl-ethyl)-amide]
23 | 4.6 nM | 1.9 nM | CC[C@H](C)NC(=O)c1c[nH]c2ncc(-c3nn(C)c4cc(F)ccc34)nc12 [Example I-178, 2-(6-Fluoro-1-methyl-1H-indazol-3-yl)-5H-pyrrolo[2,3-b]pyrazine-7-carboxylic acid ((S)-sec-butyl)-amide]
24 | 9.95 nM | 19.7 nM | CC(NC(=O)c1c[nH]c2ncc(-c3nn(C)c4cc(F)ccc34)nc12)[C@H]1C[C@@H](O)C1 (stereo partly drawn) [Example I-73, 2-(6-Fluoro-1-methyl-1H-indazol-3-yl)-5H-pyrrolo[2,3-b]pyrazine-7-carboxylic acid [1-(cis-3-hydroxy-cyclobutyl)-ethyl]-amide]
25 | 3.32 nM | 58.3 nM | COc1ccc2c(-c3cnc4[nH]cc(C(=O)NC(C)(C)CO)c4n3)nn(C)c2c1 [Example I-365, 2-(6-Methoxy-1-methyl-1H-indazol-3-yl)-5H-pyrrolo[2,3-b]pyrazine-7-carboxylic acid (2-hydroxy-1,1-dimethyl-ethyl)-amide]
26 | 324 nM | 5.46 nM | COC[C@H](C)NC(=O)c1c[nH]c2ncc(-c3nn(CCn4cccn4)c4cc(F)ccc34)nc12 [Example I-244, 2-[6-Fluoro-1-(2-pyrazol-1-yl-ethyl)-1H-indazol-3-yl]-5H-pyrrolo[2,3-b]pyrazine-7-carboxylic acid ((S)-2-methoxy-1-methyl-ethyl)-amide]
27 | 4.55 nM | 5.4 nM | Cn1nc(-c2cnc3[nH]cc(C(=O)NC(C)(C)C#N)c3n2)c2ccc(F)cc21 [Example I-377, 2-(6-Fluoro-1-methyl-1H-indazol-3-yl)-5H-pyrrolo[2,3-b]pyrazine-7-carboxylic acid (cyano-dimethyl-methyl)-amide]
28 | 20.5 nM | 8.04 nM | C[C@@H](CC#N)NC(=O)c1c[nH]c2ncc(-c3nn(C)c4cc(Cl)ccc34)nc12 [Example I-142, 2-(6-Chloro-1-methyl-1H-indazol-3-yl)-5H-pyrrolo[2,3-b]pyrazine-7-carboxylic acid ((S)-2-cyano-1-methyl-ethyl)-amide]
